Measurements reported in patent US11053250B2, “Pyrrolo[1,2-b]pyridazine derivatives” (Gilead Sciences, Inc., priority 2018, dated 2021).

Key:
TNFα = test: IRAK4 Monocyte TNFα Cell Based Assay; details: cryopreserved human monocytes, LPS 50 pg/ml stimulation, TNFα by TR-FRET
How it was run: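 Cells (5,000/well) preincubated with compound 1 h at 37° C (0.1% DMSO), then stimulated 4 h with 50 pg/ml LPS. Supernatant TNFα quantified by TR-FRET (665/615 nm ratio). Percent of control scaled between unstimulated (0%) and LPS-stimulated (100%) wells.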

IRAK4 enzyme = IRAK4 enzyme (Homo sapiens (Human), UniProt Q9NWZ3); test: IRAK4 Biochemical Assay (TR-FRET/HTRF); details: 0.75 nM IRAK4, 500 μM ATP, STK1 peptide
How it was run: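 Compound was preincubated 15 min with 0.75 nM IRAK4 and 2 µM STK1 peptide. Reaction ran 120 min at room temperature with 500 µM ATP in HEPES pH 7.0 buffer (5 mM MgCl2, 1 mM DTT), then HTRF detection of phosphopeptide as the 665/615 nm ratio. % inhibition is relative to no-inhibitor and saturating-staurosporine controls.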

Chain of IRAK4 enzyme (Q9NWZ3 whole entry): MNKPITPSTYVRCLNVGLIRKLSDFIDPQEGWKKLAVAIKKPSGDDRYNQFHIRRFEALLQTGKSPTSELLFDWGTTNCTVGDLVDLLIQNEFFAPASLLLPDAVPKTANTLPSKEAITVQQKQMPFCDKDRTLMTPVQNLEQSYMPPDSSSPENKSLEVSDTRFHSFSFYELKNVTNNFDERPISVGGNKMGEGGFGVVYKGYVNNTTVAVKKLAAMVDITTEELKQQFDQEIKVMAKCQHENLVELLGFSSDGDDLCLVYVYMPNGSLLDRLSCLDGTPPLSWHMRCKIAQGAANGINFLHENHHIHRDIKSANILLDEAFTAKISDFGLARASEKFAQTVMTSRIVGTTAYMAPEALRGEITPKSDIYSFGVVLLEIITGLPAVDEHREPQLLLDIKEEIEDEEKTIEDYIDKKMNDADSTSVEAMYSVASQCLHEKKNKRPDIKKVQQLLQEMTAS

## CC(C)Nc1cc(-c2ccc3cc(C#N)cnn23)ncc1-c1cn(CC(=O)N(C)C)nn1 [Compound 44, 2-(4-(6-(3-cyanopyrrolo[1,2-b]pyridazin-7-yl)-4-(isopropylamino)pyridin-3-yl)-1H-1,2,3-triazol-1-yl)-N,N-dimethylacetamide]
TNFα; Monocyte
  EC50: 0.061 µM
IRAK4 enzyme
  IC50: 0.001 µM

## CNC(=O)Cn1cc(-c2cnc(-c3ccc4cc(C#N)cnn34)cc2NC(C)C)nn1 [Compound 45, 2-(4-(6-(3-cyanopyrrolo[1,2-b]pyridazin-7-yl)-4-(isopropylamino)pyridin-3-yl)-1H-1,2,3-triazol-1-yl)-N-methylacetamide]
TNFα; Monocyte
  EC50: 0.085 µM
IRAK4 enzyme
  IC50: 0.001 µM

## CC(C)Nc1cc(-c2ccc3cc(C#N)cnn23)ncc1-c1cn(C2CCN(C(=O)OC(C)(C)C)CC2)nn1 [Compound 46, tert-butyl 4-(4-(6-(3-cyanopyrrolo[1,2-b]pyridazin-7-yl)-4-(isopropylamino)pyridin-3-yl)-1H-1,2,3-triazol-1-yl)piperidine-1-carboxylate]
TNFα; Monocyte
  EC50: 0.534 µM
IRAK4 enzyme
  IC50: 0.007 µM

## CC(C)Nc1cc(-c2ccc3cc(C#N)cnn23)ncc1-c1cn(CCN2CCOCC2)nn1 [Compound 47, 7-(4-(isopropylamino)-5-(1-(2-morpholinoethyl)-1H-1,2,3-triazol-4-yl)pyridin-2-yl)pyrrolo[1,2-b]pyridazine-3-carbonitrile]
TNFα; Monocyte
  EC50: 0.033 µM
IRAK4 enzyme
  IC50: < 0.001 µM

## COCCn1cc(-c2cnc(-c3ccc4cc(C#N)cnn34)cc2NC(C)C)nn1 [Compound 48, 7-(4-(isopropylamino)-5-(1-(2-methoxyethyl)-1H-1,2,3-triazol-4-yl)pyridin-2-yl)pyrrolo[1,2-b]pyridazine-3-carbonitrile]
TNFα; Monocyte
  EC50: 0.125 µM
IRAK4 enzyme
  IC50: 0.002 µM

## CC(C)Nc1cc(-c2ccc3cc(C#N)cnn23)ncc1-c1cn(C[C@@H](F)C(C)(C)O)nn1 [Compound 49, (R)-7-(5-(1-(2-fluoro-3-hydroxy-3-methylbutyl)-1H-1,2,3-triazol-4-yl)-4-(isopropylamino)pyridin-2-yl)pyrrolo[1,2-b]pyridazine-3-carbonitrile]
TNFα; Monocyte
  EC50: 0.03 µM
IRAK4 enzyme
  IC50: < 0.001 µM

## CC(C)Nc1cc(-c2ccc3cc(C#N)cnn23)ncc1-c1cn(CC(C)(C)O)nn1 [Compound 50, 7-(5-(1-(2-hydroxy-2-methylpropyl)-1H-1,2,3-triazol-4-yl)-4-(isopropylamino)pyridin-2-yl)pyrrolo[1,2-b]pyridazine-3-carbonitrile]
TNFα; Monocyte
  EC50: 0.238 µM
IRAK4 enzyme
  IC50: 0.004 µM

## CC(C)Nc1cc(-c2ccc3cc(C#N)cnn23)ncc1-c1cn(C(C)C)nn1 [Compound 51, 7-(5-(1-isopropyl-1H-1,2,3-triazol-4-yl)-4-(isopropylamino)pyridin-2-yl)pyrrolo[1,2-b]pyridazine-3-carbonitrile]
TNFα; Monocyte
  EC50: 0.132 µM
IRAK4 enzyme
  IC50: < 0.001 µM

## CC(C)Nc1cc(-c2ccc3cc(C#N)cnn23)ncc1-c1cn(-c2cccnc2)nn1 [Compound 52, 7-(4-(isopropylamino)-5-(1-(pyridin-3-yl)-1H-1,2,3-triazol-4-yl)pyridin-2-yl)pyrrolo[1,2-b]pyridazine-3-carbonitrile]
TNFα; Monocyte
  EC50: 0.095 µM
IRAK4 enzyme
  IC50: 0.003 µM

## CC(C)Nc1cc(-c2ccc3cc(C#N)cnn23)ncc1-c1cn(C2COC2)nn1 [Compound 53, 7-(4-(isopropylamino)-5-(1-(oxetan-3-yl)-1H-1,2,3-triazol-4-yl)pyridin-2-yl)pyrrolo[1,2-b]pyridazine-3-carbonitrile]
TNFα; Monocyte
  EC50: 0.171 µM
IRAK4 enzyme
  IC50: 0.002 µM

## CC(C)Nc1cc(-c2ccc3cc(C#N)cnn23)ncc1-c1cn(C)nn1 [Compound 55, 7-(4-(isopropylamino)-5-(1-methyl-1H-1,2,3-triazol-4-yl)pyridin-2-yl)pyrrolo[1,2-b]pyridazine-3-carbonitrile]
TNFα; Monocyte
  EC50: 0.162 µM
IRAK4 enzyme
  IC50: 0.002 µM

## COC(=O)Cn1cc(-c2cnc(-c3ccc4cc(C#N)cnn34)cc2NC(C)C)nn1 [Compound 56, methyl 2-(4-(6-(3-cyanopyrrolo[1,2-b]pyridazin-7-yl)-4-(isopropylamino)pyridin-3-yl)-1H-1,2,3-triazol-1-yl)acetate]
TNFα; Monocyte
  EC50: 0.042 µM
IRAK4 enzyme
  IC50: < 0.001 µM

## CC(C)Nc1cc(-c2ccc3cc(C#N)cnn23)ncc1-c1cn(C23CC(C2)C3)nn1 [Compound 57, 7-(5-(1-(bicyclo[1.1.1]pentan-1-yl)-1H-1,2,3-triazol-4-yl)-4-(isopropylamino)pyridin-2-yl)pyrrolo[1,2-b]pyridazine-3-carbonitrile]
TNFα; Monocyte
  EC50: 1.12 µM
IRAK4 enzyme
  IC50: 0.014 µM

## CC(C)Nc1cc(-c2ccc3cc(C#N)cnn23)ncc1-c1cn(C2(C(F)(F)F)CC2)nn1 [Compound 58, 7-(4-(isopropylamino)-5-(1-(1-(trifluoromethyl)cyclopropyl)-1H-1,2,3-triazol-4-yl)pyridin-2-yl)pyrrolo[1,2-b]pyridazine-3-carbonitrile]
TNFα; Monocyte
  EC50: 1.24 µM
IRAK4 enzyme
  IC50: 0.012 µM

## CC(C)Nc1cc(-c2ccc3cc(C#N)cnn23)ncc1-c1cn(C2CCOCC2)nn1 [Compound 59, 7-(4-(isopropylamino)-5-(1-(tetrahydro-2H-pyran-4-yl)-1H-1,2,3-triazol-4-yl)pyridin-2-yl)pyrrolo[1,2-b]pyridazine-3-carbonitrile]
TNFα; Monocyte
  EC50: 0.058 µM
IRAK4 enzyme
  IC50: < 0.001 µM

## CC(C)Nc1cc(-c2ccc3cc(C#N)cnn23)ncc1-n1cc(C2CCOCC2)nn1 [Compound 60, 7-(4-(isopropylamino)-5-(4-(tetrahydro-2H-pyran-4-yl)-1H-1,2,3-triazol-1-yl)pyridin-2-yl)pyrrolo[1,2-b]pyridazine-3-carbonitrile]
TNFα; Monocyte
  EC50: 0.184 µM
IRAK4 enzyme
  IC50: 0.002 µM

## CC(=O)N[C@H]1CC[C@H](c2cn(-c3cnc(-c4ccc5cc(C#N)cnn45)cc3NC(C)C)nn2)CC1 [Compound 61, N-((1r,4r)-4-(1-(6-(3-cyanopyrrolo[1,2-b]pyridazin-7-yl)-4-(isopropylamino)pyridin-3-yl)-1H-1,2,3-triazol-4-yl)cyclohexyl)acetamide]
TNFα
  EC50: 0.075 µM
IRAK4 enzyme
  IC50: 0.002 µM

## CC(C)Nc1cc(-c2ccc3cc(C#N)cnn23)ncc1-n1cc([C@H]2CC[C@H](NC(=O)OC(C)(C)C)CC2)nn1 [Compound 64, tert-butyl ((1r,4r)-4-(1-(6-(3-cyanopyrrolo[1,2-b]pyridazin-7-yl)-4-(isopropylamino)pyridin-3-yl)-1H-1,2,3-triazol-4-yl)cyclohexyl)carbamate]
TNFα
  EC50: 0.121 µM
IRAK4 enzyme
  IC50: 0.002 µM
